Test results as given in paper PMC8696028, “Tricarboxylate Citrate Transporter of an Oleaginous Fungus Mucor circinelloides WJ11: From Function to Structure and Role in Lipid Production” (Frontiers in Nutrition, 2021).

Target: T1, Tct (tricarboxylate citrate transporter; tricarboxylate carrier) (Mucor circinelloides, UniProt S2K4S3)
T1 construct: gene HMPREF1544_06035; full-length tct (321 residues), E. coli codon-optimised, pET30a(+) NdeI/HindIII with C-terminal His tag, E. coli BL21(DE3); urea-denatured, Ni-purified, renatured, reconstituted in liposomes
Assay: […]citrate/citrate exchange in Tct-reconstituted proteoliposomes, inhibitor-stop method
Format: biochemical
Details: 10 mM internal citrate, 0.01 mM external [14C]citrate, 2 min

T1 sequence (S2K4S3 entry or part of it): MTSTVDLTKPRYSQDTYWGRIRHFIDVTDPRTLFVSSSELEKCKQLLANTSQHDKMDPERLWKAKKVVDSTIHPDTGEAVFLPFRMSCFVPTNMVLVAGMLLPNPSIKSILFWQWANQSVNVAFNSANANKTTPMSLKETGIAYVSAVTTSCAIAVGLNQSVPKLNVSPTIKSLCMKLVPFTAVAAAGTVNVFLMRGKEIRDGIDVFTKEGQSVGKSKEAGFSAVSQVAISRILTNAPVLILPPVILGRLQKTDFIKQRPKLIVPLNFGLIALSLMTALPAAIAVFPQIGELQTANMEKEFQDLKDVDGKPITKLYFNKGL

Cc1ncc(COP(=O)(O)O)c(C=O)c1O [pyridoxal 5'-phosphate]
inhibition at 20 mM: Pyridoxal-5'-phosphate (PLP) and pHMB strongly inhibit Tct transport activity
